Source: PubChem BioAssay (NCI)
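Step 1: Grow cells in 96-well plates. Step 2: Expose to compound for 48 hours at 5 concentrations. Step 3: Interpolate endpoints linearly; if unreached, use highest concentration. TGI: concentration producing complete growth inhibition.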

Experiments:
Experiment in all cases: NCI anticancer screen, dose series, 48 h
HOP-62 NSCLC = tested on: HOP-62 NSCLC
RPMI-8226 leukemia = tested on: RPMI-8226 leukemia
UO-31 renal = tested on: UO-31 renal
SN12C renal = tested on: SN12C renal
OVCAR-3 ovarian = tested on: OVCAR-3 ovarian
SK-MEL-2 melanoma = tested on: SK-MEL-2 melanoma
LXFL 529 NSCLC = tested on: LXFL 529 NSCLC
SF-295 CNS = tested on: SF-295 CNS
DLD-1 colon = tested on: DLD-1 colon
SK-MEL-28 melanoma = tested on: SK-MEL-28 melanoma
M14 melanoma = tested on: M14 melanoma
SK-MEL-5 melanoma = tested on: SK-MEL-5 melanoma
NCI-H23 lung = tested on: NCI-H23 lung
DMS 114 small cell lung = tested on: DMS 114 small cell lung
NCI-H226 lung = tested on: NCI-H226 lung
TK-10 renal = tested on: TK-10 renal
SNB-19 CNS = tested on: SNB-19 CNS
HOP-18 NSCLC = tested on: HOP-18 NSCLC
IGROV1 ovarian = tested on: IGROV1 ovarian
A549 NSCLC = tested on: A549 NSCLC
HCC-2998 colon = tested on: HCC-2998 colon
MALME-3M melanoma = tested on: MALME-3M melanoma
OVCAR-8 ovarian = tested on: OVCAR-8 ovarian
HCT-15 colon = tested on: HCT-15 colon
NCI-H460 lung = tested on: NCI-H460 lung
LOX IMVI melanoma = tested on: LOX IMVI melanoma
HCT-116 colon = tested on: HCT-116 colon
786-0 renal = tested on: 786-0 renal
EKVX NSCLC = tested on: EKVX NSCLC
NCI-H522 lung = tested on: NCI-H522 lung
SNB-78 CNS = tested on: SNB-78 CNS
HL-60(TB) leukemia = tested on: HL-60(TB) leukemia
U251 CNS = tested on: U251 CNS
COLO 205 colon = tested on: COLO 205 colon
SF-268 CNS = tested on: SF-268 CNS
HOP-92 NSCLC = tested on: HOP-92 NSCLC
K-562 leukemia = tested on: K-562 leukemia
SF-539 CNS = tested on: SF-539 CNS
CAKI-1 renal = tested on: CAKI-1 renal
XF 498 CNS = tested on: XF 498 CNS
KM12 colon = tested on: KM12 colon
SNB-75 CNS = tested on: SNB-75 CNS
OVCAR-4 ovarian = tested on: OVCAR-4 ovarian
SW-620 colon = tested on: SW-620 colon
SK-OV-3 ovarian = tested on: SK-OV-3 ovarian
MOLT-4 leukemia = tested on: MOLT-4 leukemia
UACC-62 melanoma = tested on: UACC-62 melanoma
CCRF-CEM leukemia = tested on: CCRF-CEM leukemia
RXF 393 renal = tested on: RXF 393 renal
ACHN renal = tested on: ACHN renal
DMS 273 small cell lung = tested on: DMS 273 small cell lung
KM20L2 colon = tested on: KM20L2 colon
UACC-257 melanoma = tested on: UACC-257 melanoma
HT29 colon = tested on: HT29 colon
M19-MEL melanoma = tested on: M19-MEL melanoma

What does the source list for COc1cc2cc3c4c(cc(OC)c(OC)c4c2cc1OC)CCN3?
TGI (HOP-62 NSCLC): > 100 µM; TGI (RPMI-8226 leukemia): 68 µM; TGI (UO-31 renal): > 100 µM; TGI (SN12C renal): > 100 µM; TGI (OVCAR-3 ovarian): > 100 µM; TGI (SK-MEL-2 melanoma): 59.7 µM; TGI (LXFL 529 NSCLC): > 100 µM; TGI (SF-295 CNS): > 100 µM; TGI (DLD-1 colon): 73.8 µM; TGI (SK-MEL-28 melanoma): > 100 µM; TGI (M14 melanoma): > 100 µM; TGI (SK-MEL-5 melanoma): > 100 µM; TGI (NCI-H23 lung): > 100 µM; TGI (DMS 114 small cell lung): > 100 µM; TGI (NCI-H226 lung): > 100 µM; TGI (TK-10 renal): > 100 µM; TGI (SNB-19 CNS): > 100 µM; TGI (HOP-18 NSCLC): > 100 µM; TGI (IGROV1 ovarian): > 100 µM; TGI (A549 NSCLC): > 100 µM; TGI (HCC-2998 colon): > 100 µM; TGI (MALME-3M melanoma): > 100 µM; TGI (OVCAR-8 ovarian): > 100 µM; TGI (HCT-15 colon): > 100 µM; TGI (NCI-H460 lung): 82.6 µM; TGI (LOX IMVI melanoma): > 100 µM; TGI (HCT-116 colon): > 100 µM; TGI (786-0 renal): > 100 µM; TGI (EKVX NSCLC): > 100 µM; TGI (NCI-H522 lung): > 100 µM; TGI (SNB-78 CNS): > 100 µM; TGI (HL-60(TB) leukemia): 42.3 µM; TGI (U251 CNS): > 100 µM; TGI (COLO 205 colon): 63.2 µM; TGI (SF-268 CNS): > 100 µM; TGI (HOP-92 NSCLC): > 100 µM; TGI (K-562 leukemia): 81.6 µM; TGI (SF-539 CNS): 51.1 µM; TGI (CAKI-1 renal): > 100 µM; TGI (XF 498 CNS): > 100 µM; TGI (KM12 colon): > 100 µM; TGI (SNB-75 CNS): > 100 µM; TGI (OVCAR-4 ovarian): > 100 µM; TGI (SW-620 colon): 51.2 µM; TGI (SK-OV-3 ovarian): > 100 µM; TGI (MOLT-4 leukemia): > 100 µM; TGI (UACC-62 melanoma): 19.5 µM; TGI (CCRF-CEM leukemia): 77.2 µM; TGI (RXF 393 renal): 85.8 µM; TGI (ACHN renal): > 100 µM; TGI (DMS 273 small cell lung): > 100 µM; TGI (KM20L2 colon): 88.5 µM; TGI (UACC-257 melanoma): > 100 µM; TGI (HT29 colon): 96.2 µM; TGI (M19-MEL melanoma): 25.6 µM

How did the TGI (HOP-62 NSCLC) turn out when COCN1C(=O)C2CC(/C=C/C(N)=O)=CN2C(=O)c2ccccc21 (configuration not stated) was run?
Its TGI is greater than 100 µM.

And the TGI (RPMI-8226 leukemia)?
Its TGI is greater than 100 µM.

And the TGI (SN12C renal)?
The TGI was greater than 100 µM.

What about the TGI (OVCAR-3 ovarian) of the same compound?
The TGI was greater than 100 µM.

What about the TGI (LXFL 529 NSCLC) of the same compound?
The TGI was greater than 100 µM.

And the TGI (SF-295 CNS)?
Its TGI is greater than 100 µM.

And the TGI (DLD-1 colon)?
Its TGI is greater than 100 µM.

And the TGI (SK-MEL-28 melanoma)?
Its TGI is greater than 100 µM.

What about the TGI (M14 melanoma) of the same compound?
The TGI was greater than 100 µM.

What about the TGI (SK-MEL-5 melanoma) of the same compound?
The TGI was greater than 100 µM.

And the TGI (NCI-H23 lung)?
The TGI was greater than 100 µM.

And the TGI (DMS 114 small cell lung)?
Its TGI is greater than 100 µM.

And the TGI (NCI-H226 lung)?
Its TGI is greater than 100 µM.

What about the TGI (TK-10 renal) of the same compound?
The TGI was greater than 100 µM.

What about the TGI (SNB-19 CNS) of the same compound?
The TGI was greater than 100 µM.

And the TGI (HOP-18 NSCLC)?
Its TGI is greater than 100 µM.

And the TGI (IGROV1 ovarian)?
The TGI was greater than 100 µM.

And the TGI (A549 NSCLC)?
Its TGI is greater than 100 µM.

And the TGI (HCC-2998 colon)?
Its TGI is greater than 100 µM.

What about the TGI (OVCAR-8 ovarian) of the same compound?
The TGI was greater than 100 µM.

And the TGI (NCI-H460 lung)?
Its TGI is greater than 100 µM.

And the TGI (LOX IMVI melanoma)?
The TGI was greater than 100 µM.

And the TGI (HCT-116 colon)?
The TGI was greater than 100 µM.

What about the TGI (786-0 renal) of the same compound?
The TGI was greater than 100 µM.

What about the TGI (EKVX NSCLC) of the same compound?
Its TGI is greater than 100 µM.

And the TGI (NCI-H522 lung)?
The TGI was greater than 100 µM.

What about the TGI (SNB-78 CNS) of the same compound?
Its TGI is greater than 100 µM.

And the TGI (HL-60(TB) leukemia)?
Its TGI is greater than 100 µM.

And the TGI (U251 CNS)?
The TGI was greater than 100 µM.

And the TGI (COLO 205 colon)?
Its TGI is greater than 100 µM.

And the TGI (SF-268 CNS)?
Its TGI is greater than 100 µM.

And the TGI (K-562 leukemia)?
The TGI was greater than 100 µM.

What about the TGI (SF-539 CNS) of the same compound?
Its TGI is greater than 100 µM.

And the TGI (XF 498 CNS)?
The TGI was greater than 100 µM.

What about the TGI (KM12 colon) of the same compound?
The TGI was greater than 100 µM.

What about the TGI (SNB-75 CNS) of the same compound?
The TGI was greater than 100 µM.

And the TGI (OVCAR-4 ovarian)?
Its TGI is greater than 100 µM.

And the TGI (SW-620 colon)?
The TGI was greater than 100 µM.

And the TGI (SK-OV-3 ovarian)?
Its TGI is greater than 100 µM.

What about the TGI (MOLT-4 leukemia) of the same compound?
The TGI was greater than 100 µM.

And the TGI (UACC-62 melanoma)?
The TGI was greater than 100 µM.

And the TGI (CCRF-CEM leukemia)?
The TGI was greater than 100 µM.

And the TGI (RXF 393 renal)?
Its TGI is greater than 100 µM.

And the TGI (DMS 273 small cell lung)?
The TGI was greater than 100 µM.

And the TGI (KM20L2 colon)?
Its TGI is greater than 100 µM.

What about the TGI (HT29 colon) of the same compound?
The TGI was greater than 100 µM.

And the TGI (M19-MEL melanoma)?
Its TGI is greater than 100 µM.
